{
  "source": "patent US8592394B2",
  "about": "“Synthetic derivatives beta glycolipids and compositions thereof for the treatment of pathologic disorders” (Enzo Therapeutics, Inc., priority 2003, dated 2013)",
  "key": {"IL-10": {"tested_on": "IL-10", "assay": "Serum IL-10 by ELISA in ConA induced hepatitis", "type": "in vivo, mice", "settings": "for serum IL-10: intraperitoneal", "experimental": "(§1) Serum levels of IFN-γ, TGF-β, TNF-α IL-2, IL-4, IL-6, IL-10 and IL-12 were determined by “sandwich” ELISA, using commercial kits (Quantikine, R&D Systems, Minneapolis, Minn., USA). Serum insulin was also determined by “sandwich” ELISA too, using the commercial kit of Mercodia AB (Uppsala, Sweden) according to the manufacturer's instructions."}, "IL-4": {"tested_on": "IL-4", "assay": "Serum IL-4 by ELISA in ConA induced hepatitis", "type": "in vivo, mice", "settings": "intraperitoneal, data not shown", "experimental": "as §1"}, "[1]": {"tested_on": "intrahepatic and intrasplenic lymphocytes", "assay": "FACS analysis of intrahepatic and intrasplenic lymphocytes (NKT, CD4, CD8)", "type": "in vivo, mice", "experimental": "Splenocytes and intrahepatic lymphocytes were isolated as follows: livers and spleens were kept in RPMI-1640+FCS. Then spleens were crushed through a 70 μm nylon cell strainer (Falcon) and centrifuged (1250 rpm for 7 min) for the removal of cell debris. Red blood cells were lysed with 1 ml of cold 155 mM ammonium chloride lysis buffer and centrifuged (1250 rpm for 3 min). Splenocytes were resuspended with 1 ml RPMI+FCS. Cell viability by trypan blue staining was above 90%. For intrahepatic lymphocytes, livers were crushed through a stainless mesh (size 60, Sigma) and the cell suspension was placed in a 50-ml tube for 5 min. Lymphoprep (10 ml, Ficoll, Axis-Shield PoC AS, Oslo, Norway) was placed under similar volume of cell suspension in 50-ml tubes. Tubes were centrifuged at 1800 rpm for 18 min. Cells in the interface were collected and centrifuged at 1800 rpm for 10 min, to obtain a pellet of cells depleted of hepatocytes to a final volume of 250 μl. Approximately 1×10^6 cells/mouse liver, were recovered.\nFor ConA induced hepatitis experiments, flow cytometry was performed immediately following splenocyte and hepatic lymphocyte isolation using 1×10^6 lymphocytes in 100 μl PBS with 0.1% BSA. To determine the percentage of NKT lymphocytes, FITC anti-mouse CD3 and PE anti-mouse NK1.1 antibodies were used (eBioscience, USA). CD4 and CD8 subsets were detected using FITC anti-mouse CD3 and PE-anti-mouse CD4 or CD8 antibodies. Cells were incubated for 30 min at 4° C. in the dark, washed, and resuspended in 200 μl of PBS with 0.1% BSA. Analytical cell sorting was performed for 1×10^6 cells from each group using a fluorescence-activated cell sorter (FACSTAR plus, Becton Dickinson). Only live cells were counted, and unstained cells served as controls for background fluorescence. Gates were set on the forward and side scatter to exclude dead cells and red blood cells. Data were analyzed using either the Consort 30 two-color contour plot program (Becton Dickinson, Oxnard, Calif.) or the CELLQuest 25 program.\nAssessment of the effect of any of the synthetic analogs on the immune response was next determined by analysis of the cytokine serum level of IFNγ in each animal using a commercial “sandwich” ELISA kit, and by FACS analysis of intrahepatic and intrasplenic (peripheral) lymphocytes levels."}, "mouse splenocytes": {"tested_on": "mouse splenocytes", "assay": "In vitro stimulation of splenocytes: supernatant IFN-γ by ELISA", "type": "cell-based", "experimental": "Splenocytes were prepared as described above and plated at 2.0×10^5 cells per well in 96-well plates in RPMI-1640 supplemented with 5% FCS, […] 2-mercaptoethanol, 2 mM glutamine, 1% sodium pyruvate, and antibiotics. Titrated volumes of GC, α-GalCer, and ALIB-97 diluted in DMSO were added at final concentrations of 100 ng, 1 μg, and 10 μg/ml. After 72 h of culture, 1 μCi of [^3H] thymidine (Amersham Biosciences) was added to each well, and the cells were cultured for an additional 16 to 18 h. Cells were harvested with a cell harvester (Tomtec, Orange, Conn.), and the uptake of radioactivity was measured with a β-plate reader. To evaluate IFN-γ secretion in vitro, supernatants were harvested after 90 h of culture with glycolipids and stored until the cytokine levels were measured by ELISA."}, "STAT6": {"tested_on": "STAT6", "assay": "Immunoblot of liver lysates: STAT6", "type": "in vivo, mice", "settings": "IP", "experimental": "For ConA induced hepatitis experiments spleen and liver lysates were lysed in RIPA buffer containing 50 mM Tris, pH 7.4, 1% NP-40, 150 mM NaCl, 0.1% SDS, 0.5% sodium deoxycholate and protease inhibitors (5 μg/ml, Sigma), with protease and phosphatase (Sigma, Rehovot, Israel).\nLysates were centrifuged twice at 4° C. for 10 minutes in 14000 rpm. Equivalent amounts of lysates (15 μg/lane), determined by Bradford assay (Bio-Rad, Rehovot, Israel), were separated by sodium dodecyl sulfate polyacrylamide gel electrophoresis (SDS-PAGE) and transferred to nitrocellulose membranes.\nFor ConA induced hepatitis experiments proteins were detected with phospho-specific STAT1-Tyr701, STAT6-Tyr641, STAT1, and STAT6 antibodies from Cell Signaling. β-actin (abcam, UK) was used as a loading control.\nBlots were developed with horseradish peroxidase-conjugated secondary antibodies (Jackson Laboratories Bar Harbor, Me.) and Western Blot-Luminol Reagent (Santa Cruz Biotechnology, CA, USA). Cell counting and western Blot quantification was performed using total Lab (Phoretix, USA) software."}, "ob/ob mice": {"tested_on": "ob/ob mice", "assay": "Fasting glucose and glucose tolerance test in ob/ob mice", "type": "in vivo", "experimental": "Mice underwent a glucose tolerance test (GTT) on day 30 after overnight fasting. Glucose was administered orally (1.25 g per kg). Serum glucose measurements were performed on tail-vein blood every 15 min for 3 h. Glucose levels were measured by a standard glucometer.\nTherefore, five groups of male C57BL/6 Ob/Ob mice were studied. Mice (6 per group) were fed (per os) daily for 4 weeks with 15 or 45 μg of GC (groups B and C, respectively) and 15 or 45 μg of ALIB-97 (groups D and E, respectively). Control mice (Group A) were administered vehicle only."}, "[2]": {"settings": "B6 mice, intraperitoneal, 8 h, p<0.05"}, "[3]": {"settings": "B6 mice, oral administration, p<0.05"}, "[4]": {"settings": "ConA induced hepatitis, C57Bl/6 mice, intraperitoneal, low dosage 1 μg/mice"}},
  "data": [
    {"smiles": "CCCCCCCCCCCCCC=CC(O)C(CO[C@@H]1OC(CO)[C@@H](O)C(O)C1O)NC(=S)NC12CC3CC(CC(C3)C1)C2", "note": "(stereo in doubt) [ALIB-97, N-adamantyl-N′-glucosylsphingosine thiourea]", "values": [
      {"measurement": "serum IL-10", "setting": "IL-10; B6 mice", "result": "increased"},
      {"measurement": "IL-10 serum levels", "setting": "IL-10; B6 mice, oral administration, after 20 hours", "result": "Decreased"},
      {"measurement": "serum IL-10", "setting": "IL-10; CD1d−/− mice", "result": "increased"},
      {"measurement": "serum IL-10", "setting": "IL-10; Jα18−/− mice", "result": "increased"},
      {"measurement": "serum levels of IL-4", "setting": "IL-4", "result": "did not affect"},
      {"measurement": "splenic CD3/NKT cells", "setting": "[1]; B6 mice, intraperitoneal, 8 h, p<0.01", "result": "significantly reduced"},
      {"measurement": "decrease of hepatic CD3/NKT cells", "setting": "[1]; [2]", "result": "more than 55%"},
      {"measurement": "splenic CD3/CD4 cells", "setting": "[1]; [2]", "result": "significantly reduced"},
      {"measurement": "splenic CD3/CD4 cells", "setting": "[1]; B6 mice, intraperitoneal, 20 h", "result": "not affected"},
      {"measurement": "increase of hepatic CD3/CD4 cells", "setting": "[1]; B6 mice, intraperitoneal, 20 h, p=0.01", "result": 33, "unit": "%"},
      {"measurement": "hepatic CD3/CD8 lymphocytes", "setting": "[1]; B6 mice, oral administration", "result": "unaffected"},
      {"measurement": "decrease in hepatic CD3/NK1.1 lymphocytes", "setting": "[1]; B6 mice, oral administration, after 8 hours, p<0.05", "result": 73, "unit": "%"},
      {"measurement": "increase of splenic CD3/NK1.1 lymphocytes", "setting": "[1]; [3]", "result": "> 100", "unit": "%"},
      {"measurement": "reduction of splenic CD3/CD8 cells", "setting": "[1]; [3]", "result": 30, "unit": "%"},
      {"measurement": "reduction of splenic CD3/CD4 cells", "setting": "[1]; B6 mice, oral administration, p=0.07", "result": 23, "unit": "%"},
      {"measurement": "decrease in hepatic CD3/CD4 lymphocyte ratio", "setting": "[1]; B6 mice, oral administration, p=0.08", "result": 20, "unit": "%"},
      {"measurement": "intrahepatic NKT cell levels", "setting": "[1]; [4]", "result": "decrease"},
      {"measurement": "intrahepatic/peripheral ratio of NKT cells", "setting": "[1]; [4]", "result": "decrease"},
      {"measurement": "peripheral/intrahepatic ratio of the CD4/CD8 ratio", "setting": "[1]; [4]", "result": "increase"},
      {"measurement": "IFN-γ secretion", "setting": "mouse splenocytes; CD1d−/− splenocytes", "result": "absence"},
      {"measurement": "IFN-γ secretion", "setting": "mouse splenocytes; Jα18−/− splenocytes", "result": "absence"},
      {"measurement": "activation of IFN-γ secretion", "setting": "mouse splenocytes; mouse (B6) splenocytes, 100 ng", "result": "more than 9 fold"},
      {"measurement": "STAT6 expression in the liver", "setting": "STAT6; B6 mice", "result": "slightly increased"},
      {"measurement": "STAT6 expression in the liver", "setting": "STAT6; CD1d−/− mice", "result": "markedly induced"},
      {"measurement": "time at which the decrease in glucose levels (GTT, relative to time 0) reached statistical significance", "setting": "ob/ob mice; day 30, 15 μg per os daily", "result": 90, "unit": "min"},
      {"measurement": "time at which the decrease in glucose levels (GTT, relative to time 0) reached statistical significance", "setting": "ob/ob mice; day 30, 45 μg per os daily", "result": 60, "unit": "min"}
    ]}
  ]
}
